Assay results: patent publication US12029734B2, “Compositions and methods for treatment of symptoms in Parkinson's disease patients” (Tyler Medical Research, LLC, priority 2011, dated 2024)
Where two headings read alike, the source gives them in different places.

Key:
[1] = test system: patients with idiopathic PD and LIDS
Source text: A total of 65 patients with idiopathic PD and LIDS were enrolled in a phase II study. Major entry criteria were as follows: 1) Hoehn and Yahr Stage II-IV while in “on” state, 2) had moderately to severely disabling LIDS>25% of waking day as determined by a rating of >2 on each of Questions 32 and 33 of the Unified Parkinson's Disease Rating Scale (UPDRS), 3) be on stable doses of levodopa and other medicines for PD for >30 days, 4) have a negative screening urine test for cotinine, and 5) not be a smoker or previous smoker or regular exposure to second-hand smoke. The study consisted of 3 phases: a treatment period of 10 weeks, a 9-day drug taper period, and a 5-day follow-up period. Subjects were randomly assigned to receive either nicotine or placebo (pbo). Dosing began at 1 mg q6 hr and was escalated at 2-week intervals to 6 mg q6 hr (24 mg/day). All subjects were allowed to take ondansetron as rescue medication for the treatment of nausea and/or vomiting for the first 3 days of each dose escalation. Subjects were maintained on 24 mg/day for 4 weeks.
Efficacy was assessed using the UPDRS (total of Parts II+III+IV), sum of Q32+Q33, Unified Dyskiensia Rating Scale (UDysRS) total scores and subscores, Lang-Fahn Dyskinesia Activities of Daily Living Scale (LF-ADL), physician and patient ratings of improvement from baseline in dyskinesias on 7-point CGI-C and PGI-C scales, and responder analyses (subjects with >25% improvement from baseline) on UDysRS total score and LF-ADL, and % subjects with any improvement on PGI-C and CGI-C.
The safety population for all safety analyses consisted of all subjects who received at least 1 dose of nicotine or placebo.

[2] = test system: patients with idiopathic PD and LIDS; remark: listed apart in the source
Description: (§1) Safety was assessed by incidences of adverse experiences (AE), clinical laboratory tests, serum cotinine, ECG and vital signs. Impulsive symptoms were assessed using the Jay Modified Minnesota Impulsive Disorders Interview (JayMidi). Withdrawal symptoms were evaluated using the Minnesota Nicotine Withdrawal Scale (MNWS-R).

[3] = test system: patients with idiopathic PD and LIDS; experiment: Phase II clinical trial of nicotine: safety assessments (AEs, laboratory tests, serum cotinine, ECG, JayMidi, MNWS-R); settings: human, in vivo
Description: as §1

[4] = cited from earlier work

For `CN1CCC[C@H]1c1cccnc1` [nicotine, 3-[(2S)-1-methylpyrrolidin-2-yl]pyridine], the UPDRS total scores ([1]; 10 weeks of treatment) was “did not worsen, but improved”, the “number of UDysRS subscores improved (mean changes from baseline compared to pbo)” value ([1]; Week 10 (FIG. 3)) was 9 of 10 and the “UPDRS Part III score, maximum mean improvement” value ([1]; Week 10, change from baseline (FIG. 1)) was 2.0 points. For the same compound, the “LF-ADL responders (>25% improvement from baseline)” value ([1]; Week 10, p=0.04 versus pbo) was 56%, the “CGI-C pattern compared to pbo” value ([1]; after 10 weeks (FIG. 4)) was “similar, but not statistically significant pattern” and the “PGI-C: patients rating themselves as having any degree of improvement” value ([1]; after 10 weeks, p=0.004 versus pbo (FIG. 4)) was 78%. The “efficacy on LIDS on the majority of patient- and physician-rated outcome measures” value ([1]; compared to pbo) was “trend or statistically significant improvement”, the “UPDRS mean change from baseline to Week 10” value ([1]; compared to placebo, every visit during drug treatment) was “numerical improvement” and the UDysRS total score ([1]; every study visit during the drug-treatment period (FIG. 2)) was “Mean improvement from baseline and greater separation from pbo”. The “PGI-C: distribution of subjects in each category compared to pbo” value ([1]; p=0.02) was “significant”, the “ambulation (UDysRS subscore)” value ([1]; versus pbo, p=0.01) was “Statistically significant improvement” and the “overall safety and tolerability” value ([2]; PD patients with LIDS, oral, escalated from 1 mg q6 hr to 6 mg q6 hr (24 mg/day), 10 weeks) was “generally safe and well-tolerated”. For the same compound, the “withdrawal symptoms, MNWS-R score (maximal score 60)” value ([2]; Week 10 (end of drug treatment)) was 7.5, the “relation of SAEs to study medication” value ([2]; all SAEs) was “unrelated to study medication” and the “withdrawal symptoms, MNWS-R score (maximal score 60)” value ([2]; end of the follow-up period) was 5.4. For the same compound, the “occurrences of impulsivity disorders (positive score on any JayMidi module)” value ([2]; nicotine group) was 1 subject, the “overall incidence of serious AEs (SAE)” value ([2]; nicotine group) was 4 subjects and the “percentage of subjects reporting treatment-related AEs” value ([2]; nicotine group) was 54%. For the same compound, the “subjects who used rescue medication (ondansetron)” value ([2]; nicotine group) was “Twenty-nine”, the “treatment-emergent AE: constipation, subjects” value ([2]; nicotine group) was 11% and the “treatment-emergent AE: dizziness, subjects” value ([2]; nicotine group) was 11%. The “treatment-emergent AE: fatigue, subjects” value ([2]; nicotine group) was 9%, the “treatment-emergent AE: nausea, subjects” value ([2]; nicotine group) was 31% and the “treatment-emergent AE: nightmares, subjects” value ([2]; nicotine group) was 6%. For the same compound, the “treatment-emergent AE: non-specific pain, subjects” value ([2]; nicotine group) was 9%, the “treatment-emergent AE: vomiting, subjects” value ([2]; nicotine group) was 6% and the “subjects withdrawn due to treatment-related AEs” value (“subjects withdrawn due” below) ([2]; nicotine group, n=35 randomized) was 6 subjects. For the same compound, the “subjects withdrawn due” value ([2]; on 4 mg/day) was 1 subject, the “subjects withdrawn due” value ([2]; on 8 mg/day) was 1 subject and the “subjects withdrawn due” value ([2]; on 16 mg/day) was 2 subjects. The “subjects withdrawn due” value ([2]; on 24 mg/day) was 2 subjects, the serum cotinine levels ([2]; patients treated with nicotine, dose escalation) was “increased with increasing dose” and the “intensity of the majority of adverse events” value ([2]; transient in duration) was “mild or moderate in intensity”. The “changes in ECG parameters” value [3] was “no clinically relevant changes” and the “withdrawal symptoms as assessed by MNWS-R, clinical relevance” value [3] was “not a clinically relevant issue”.

For `N[C@@H](Cc1ccc(O)c(O)c1)C(=O)O` [Levodopa, L-3,4-dihydroxyphenylalanine (S)-2-amino-3-(3,4-dihydroxyphenyl)propanoic acid], the solubility in water [4] is given as “slightly soluble in water”.
